Assay results: PubChem BioAssay (NCI)
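All cell lines were grown in 96-well plates and treated with compound for 48 hours. The concentration for 50% growth inhibition is given as GI50. TGI marks complete inhibition of growth.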

Tests used:
Experiment in all cases: growth of human tumour cells (NCI), 48 h
[1] = system: LOX IMVI melanoma
[2] = system: SN12C renal
[3] = system: M14 melanoma
[4] = system: OVCAR-4 ovarian
[5] = system: HCT-15 colon
[6] = system: MOLT-4 leukemia
[7] = system: ACHN renal
[8] = system: SNB-75 CNS
[9] = system: T-47D breast
[10] = system: SNB-19 CNS
[11] = system: OVCAR-5 ovarian
[12] = system: NCI-H522 lung
[13] = system: SK-MEL-28 melanoma
[14] = system: SW-620 colon
[15] = system: RPMI-8226 leukemia
[16] = system: HT29 colon
[17] = system: BT-549 breast
[18] = system: A549 NSCLC
[19] = system: MDA-MB-231 breast
[20] = system: U251 CNS
[21] = system: MDA-MB-435
[22] = system: COLO 205 colon
[23] = system: MCF7 breast
[24] = system: HS 578T breast
[25] = system: PC-3 prostate
[26] = system: SF-268 CNS
[27] = system: K-562 leukemia
[28] = system: NCI/ADR-RES ovarian
[29] = system: SF-295 CNS
[30] = system: UACC-257 melanoma
[31] = system: DU-145 prostate
[32] = system: IGROV1 ovarian
[33] = system: NCI-H460 lung
[34] = system: EKVX NSCLC
[35] = system: SK-MEL-2 melanoma
[36] = system: SK-MEL-5 melanoma
[37] = system: OVCAR-8 ovarian
[38] = system: SK-OV-3 ovarian
[39] = system: OVCAR-3 ovarian
[40] = system: CCRF-CEM leukemia
[41] = system: NCI-H23 lung
[42] = system: 786-0 renal
[43] = system: HOP-92 NSCLC
[44] = system: UACC-62 melanoma
[45] = system: TK-10 renal
[46] = system: HCT-116 colon
[47] = system: HOP-62 NSCLC
[48] = system: SF-539 CNS
[49] = system: NCI-H226 lung
[50] = system: CAKI-1 renal
[51] = system: KM12 colon
[52] = system: RXF 393 renal
[53] = system: HCC-2998 colon
[54] = system: A498 renal
[55] = system: UO-31 renal

## CC(=O)O[C@H]1[C@@H]2OC(=O)C3(CC3)C2C[C@H]2O[C@]2(C)CC/C=C(\C)CCC[C@@H]1C (stereo not given in full)
[1]
  GI50: 15.8 µM
  TGI: 46.2 µM
[2]
  GI50: 22.7 µM
  TGI: 49.7 µM
[3]
  GI50: 19.1 µM
  TGI: 43.6 µM
[4]
  GI50: 38 µM
  TGI: > 100 µM
[5]
  GI50: 26.8 µM
  TGI: 70 µM
[6]
  GI50: 18.1 µM
  TGI: 41.3 µM
[7]
  GI50: 21 µM
  TGI: 44.2 µM
[8]
  GI50: 38.1 µM
  TGI: > 100 µM
[9]
  GI50: 43.7 µM
  TGI: > 100 µM
[10]
  GI50: 62.4 µM
  TGI: > 100 µM
[11]
  GI50: 76.5 µM
  TGI: > 100 µM
[12]
  GI50: 21.1 µM
  TGI: 48.4 µM
[13]
  GI50: 36.7 µM
  TGI: > 100 µM
[14]
  GI50: 23.7 µM
  TGI: 55.9 µM
[15]
  GI50: 23.8 µM
  TGI: 55.2 µM
[16]
  GI50: 36.8 µM
  TGI: > 100 µM
[17]
  GI50: 18.7 µM
  TGI: 46.2 µM
[18]
  GI50: 20.3 µM
  TGI: 46 µM
[19]
  GI50: 20.5 µM
  TGI: 48.7 µM
[20]
  GI50: 22.6 µM
  TGI: 49.9 µM
[21]
  GI50: 24.2 µM
  TGI: 54.3 µM
[22]
  GI50: 34 µM
  TGI: > 100 µM
[23]
  GI50: 37.1 µM
  TGI: > 100 µM
[24]
  GI50: 19 µM
  TGI: 50.2 µM
[25]
  GI50: 19 µM
  TGI: 49.6 µM
[26]
  GI50: 27.7 µM
  TGI: > 100 µM
[27]
  GI50: 14.3 µM
  TGI: 37.7 µM
[28]
  GI50: 23.3 µM
  TGI: 67.5 µM
[29]
  GI50: 40.2 µM
  TGI: > 100 µM
[30]
  GI50: 43.4 µM
  TGI: > 100 µM
[31]
  GI50: 19.6 µM
  TGI: 39.1 µM
[32]
  GI50: 16.4 µM
  TGI: 45.2 µM
[33]
  GI50: 24.6 µM
  TGI: 58.2 µM
[34]
  GI50: 30.1 µM
  TGI: > 100 µM
[35]
  GI50: 19.5 µM
  TGI: 49.5 µM
[36]
  GI50: 14.8 µM
  TGI: 29 µM
[37]
  GI50: 27.8 µM
  TGI: > 100 µM
[38]
  GI50: 80.5 µM
  TGI: > 100 µM
[39]
  GI50: 17.5 µM
  TGI: 32.9 µM
[40]
  GI50: 17.2 µM
  TGI: 37.8 µM
[41]
  GI50: 22.1 µM
  TGI: > 100 µM
[42]
  GI50: 25.8 µM
  TGI: 92 µM
[43]
  GI50: 4.58 µM
  TGI: 63 µM
[44]
  GI50: 17.1 µM
  TGI: 46.1 µM
[45]
  GI50: 23.9 µM
  TGI: 46.9 µM
[46]
  GI50: 15.7 µM
  TGI: 37.3 µM
[47]
  GI50: 37.7 µM
  TGI: > 100 µM
[48]
  GI50: 23.3 µM
  TGI: 50.8 µM
[49]
  GI50: 24.1 µM
  TGI: 66.5 µM
[50]
  GI50: 19.8 µM
  TGI: 42.1 µM
[51]
  GI50: 18.4 µM
  TGI: 36.5 µM
[52]
  GI50: 14.8 µM
  TGI: 37.7 µM
[53]
  GI50: 19.8 µM
  TGI: 50.9 µM
[54]
  GI50: 27.4 µM
  TGI: > 100 µM
[55]
  GI50: 25.5 µM
  TGI: 64.2 µM
